This is an account of results in patent US6087361A, “Aryl-imidazolines and aryl-imidazoles useful as α-2 adrenergic agonists without cardiovascular side effects” (Allergan Sales, Inc., priority 1997, dated 2000).

One data set has as its target I1 imidazoline receptor. Nature of the data set: I1 imidazoline receptor binding assay, 3H-clonidine, bovine VLM membranes. The conditions noted are these: 25° C., 50 min. The protocol:
Fresh bovine brain stems were obtained from a local slaughter house. After removal of pia-arachnoid, the medulla was isolated by dissecting the brain stem about 1 cm posterior and 1 cm caudal to the obex. The ventral quadrants of the medulla excluding the pyramids were used as the VLM. For each preparation, 30 to 40 VLM were used. Initial homogenization was performed in 20 volumes of 5 mM HEPES buffer (pH 7.4 at 4° C.) containing 250 mM sucrose, 50 uM Calpain I inhibitor (Boehginer Mannheim, Indianapolis, Ind.), 100 uM 1,10-phenanthroline (Sigma, St. Louis, Mo.) and 50 uM Pefabloc (Boehginer Mannheim, Indianapolis, Ind.), using Virtis homogenizer at setting 7 with three 10 second pulses, followed by three passes in a teflon-glass tissue homogenizer. The inhibitors were added to prevent degradation by proteases and peptidases. The homogenates were then centrifuged at 1000× g for 10 min and the resulting pellets were re-homogenized and centrifuged. Supernatants resulted from both runs were combined and centrifuged for 20 min at 48000× g. The pellets obtained were resuspended in a teflon-glass homogenizer in 50 mM Tris-HCl with 5 mM EDTA (pH 7.7 at 4° C.), centrifuged, and resuspended in 50 mM Tris-HCl with 25 mM NaCl, pH 7.7 at room temp. To remove endogenous ligands, the homogenate was incubated 30 min at room temp before it was centrifuged for 20 min at 48000× g. The pellets were then washed with 50 mM Tris-HCl buffer, (pH 7.4 at 4° C.) and loaded on top of 5 mM HEPES/0.85 M sucrose (pH 7.4 at 4° C.). Pellets obtained after centrifugation at 48000× g for 20 min were saved. The fatty connective tissue on the top layer was discarded. The partially purified VLM membrane pellets were then washed twice with 50 mM Tris-HCl, pH 7.7 at 4° C., flash frozen in dry ice/acetone slush, and stored at -100° C. until use. Receptor binding experiments were performed within days after the membrane preparation.
I1 imidazoline receptor binding affinity was determined from radioligand binding of ^3 H-clonidine (NEN, Boston, Mass.) to bovine VLM membranes. Specific activity of ^3 H-clonidine was 43 Ci/mmol. Kd of ^3 H-clonidine binding to the I1 imidazoline receptor was determined by saturation experiments and Ki of other ligands studied were determined by competition experiments. The radioligand binding assay was performed in Teflon 96-wells with the Biomek-1000 robotics (Beckman Instruments, Fullerton, Calif.). Each well contained […] ^3 H-Clonidine and 0.3 to 0.5 mg of bovine VLM protein in 5 mM HEPES buffer containing 0.5 mM EGTA and 0.5 mM MgCl2, pH 7.4 (0.1 mM ascorbic acid was added just before the protein). After 50 min of incubation at 25° C., the reaction was terminated by rapid filtration over Whatman GF/B filters treated with 0.1% polyethyleneimine and washed with 12 ml ice cold 50 mM Tris-HCl, pH 7.4 at 4° C. in a Brandel Harvester (Brandel, Gaithersburg, Md.). Both `hot` and `cold` saturation experiments were performed. In `hot` saturation experiments, studies were performed with ^3 H-clonidine ranging from 0.1 to 50 nM. In `cold` saturation experiments, studies were performed with 2 nM ^3 H-clonidine with 20 different concentrations of the unlabeled clonidine, ranging from 0.1 nM to 1 uM unlabeled clonidine. Non specific binding was defined by parallel incubations containing 10^-5 M phentolamine or naphazoline. Imidazoline binding was determined by parallel incubations in which the alpha-adrenergic sites were masked with 10^-5 M norepinephrine. During competition experiments, ligands of 20 concentrations ranged from 10^-11 to 10^-4 were used. Radioactivity was counted in a Beckman LS-3801 scintillation counter. Data were captured and analyzed with Accufit saturation and competition softwares modeled both for one-site and two-site fits (Beckman Instruments, Fullerton, Calif.) using an IBM compatible computer. All experiments were repeated at least twice.

Another data set addresses I2A. The experiment in a line: Receptor binding, I2A.
Another data set has as its target I2B. The experiment in a line: Receptor binding, I2B.
For a further data set, the target named is α1. The experiment in a line: Receptor binding, [3H]prazosin, human cerebral cortex membranes (HCC). Particulars: 22° C., 30 min. As for the experimental part: Tissue preparation: Membrane suspensions were prepared from human cerebral cortex ([…], for α1 receptors) obtained from the UCI Organ and Tissue Bank. Briefly, tissues (1 g) were homogenized in 25 mL of ice-cold 5 mM Tris, pH 7.4 with a Polytron homogenizer for 30 sec at setting #7, and centrifuged for
10-12 minutes at 300× g at 4° C. The supernatant was filtered through 2 layers of gauze and diluted 1:2 with 50 mM Tris-HCl buffer, pH 7.4, then centrifuged at 49,000× g for 20 minutes. The pellet fraction was washed 3 times (resuspended in Tris-HCl buffer and centrifuged for 20 minutes; at 49,000× g). The pellet was then stored at -80° C. until the binding assay.
(§1) Binding Studies: The radioligands [^3 H]rauwolscine (specific activity 80 Ci/mmol) and [^3 H]prazosin (specific activity 76 Ci/mmol) were obtained from New England Nuclear, Boston, Mass. Frozen membrane pellet was resuspended in 25 mM glycine/glycine, pH 7.5 and incubated with radioligand under the following conditions: CHO-C10, CHO-RNG, CHO-C4-[^3 H]rauwolscine, 22° C., 30 minutes; RKC-[^3 H]rauwolscine, 0° C., 120 minutes; and, HCC-[^3 H]prazosin, 22° C., 30 minutes in a final volume of 500 ul. At the end of the incubation period, the samples were filtered through glass filters (Whatman GF/B) in a 96 well cell harvester and rapidly washed four times with 4 mL of iced-cold 50 mM Tris-HCl buffer. The filters were then oven dried and transferred to scintillation vials containing 10 mL of Beckman's Ready Protein® scintillation cocktail for counting. […] Protein concentrations were determined with a protein assay kit from Bio Rad. Binding isotherms, equilibrium dissociation and affinity constants were analyzed and determined by the non-linear least squares curve fitting programs EBDA (BioSoft) or AccuFit Competition/Saturation by Beckman.
(§2) The radioligands [^3 H] rauwolscine (specific activity 80 Ci/mmol) and [^3 H] prazosin (specific activity 76 Ci/mmol) were obtained from New England Nuclear, Boston, Mass. Frozen membrane pellet was resuspended in 25 mM glycine/glycine, pH 7.4 and incubated with radioligand under the following conditions: CHO-C10, CHO-RNG, CHO-C4-[^3 H]rauwolscine, 22° C., 30 min.; and, HCC-[^3 H]prazowsin, 22° C., 30 minutes in a final volume of 500 ul. At the end of the incubation period, the samples were filtered through glass fiber filters (Whatman GF/B) in a 96 well cell harvester and rapidly washed four times which 4 mL of iced-cold 50 mM Tris-CHI buffer. The filters were then oven dried and transferred to scintillation vials containing 5 mL of Beckman's Ready Protein® scintillation cocktail for counting. […] Protein concentrations were determined with a protein assay kit from Bio lad. Binding isotherms, equilibrium dissociation and affinity constants were analyzed and determined by the non-linear least squares curve fitting programs AccuFit Competition/Saturation by Beckman.
(§3) Representative compounds of the present invention were tested according to the procedures given above. […] The receptor binding studies and K1 are measures of the affinity of a compound for a particular receptor.

In another data set the target is T1, human α2C (Homo sapiens, UniProt P18825).
T1 construct: expressed in transfected cells; host or cells: CHO cells (CHO-C4)
T1 sequence (P18825 1-462): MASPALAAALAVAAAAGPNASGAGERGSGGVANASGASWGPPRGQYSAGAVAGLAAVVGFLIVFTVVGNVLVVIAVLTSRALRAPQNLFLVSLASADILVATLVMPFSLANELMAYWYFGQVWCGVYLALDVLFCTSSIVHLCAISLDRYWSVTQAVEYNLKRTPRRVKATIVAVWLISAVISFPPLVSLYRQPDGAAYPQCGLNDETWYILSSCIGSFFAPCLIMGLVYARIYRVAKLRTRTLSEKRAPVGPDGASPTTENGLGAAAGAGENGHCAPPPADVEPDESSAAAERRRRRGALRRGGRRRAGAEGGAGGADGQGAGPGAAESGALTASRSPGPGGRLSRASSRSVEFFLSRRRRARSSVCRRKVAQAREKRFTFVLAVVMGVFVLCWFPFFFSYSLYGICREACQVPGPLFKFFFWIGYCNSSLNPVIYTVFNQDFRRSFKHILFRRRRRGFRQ
Nature of the data set: Receptor binding, [3H]rauwolscine, CHO-C4 cells expressing human α2C. Particulars: CHO-C4, 22° C., 30 min. The protocol:
Cell preparation: Chinese hamster ovary (CHO) cells expressing the human α2A and human α2C (CHO-C10 and CHO-C4 respectively) receptors and CHO cells (CHO-RNG) expressing the rat α2B, adrenoceptor were grown to near confluence in Dulbecco's modified Eagle's medium supplemented with 10% fetal bovine serum using standard cell culture methods. Cells were harvested by scraping and placed into cold buffer of the following composition: 50 mM Tris-HCl, 5 mM EDTA, pH 7.4). […] The pellet fraction was washed (resuspended in Tris-HCl, pH 8 buffer and centrifuged for 15-20 minutes at 49,000× g) 2 times and stored at -100° until binding assay.
as §1, §2, §3

The conditions of data set [1]: rabbit, in vivo.
Data set [2] concerns imidazoline receptors and α2 adrenoceptors. The conditions noted are these: cited from earlier work.
The conditions of data set [3]: cited from earlier work.
For a further data set, the system named is α2 receptors. Particulars: cited from earlier work.
A further data set has as its system α2A. The conditions noted are these: cited from earlier work.
The next data set has as its system α1 receptors. The conditions noted are these: prazosin vs yohimbine; cited from earlier work.

Molecules are shown by their SMILES.

On to `Clc1cccc(Cl)c1NC1=NCCN1` [Example 2], for which the results for the Ki on I1 imidazoline receptor, on I2A and on I2B were 0.0089 µM, 10 µM and 12.5 µM, respectively.
As to `Brc1c(NC2=NCCN2)ccc2nccnc12` [Example 5], the inhibition constant (Ki) – broadly, the dissociation constant of the complex between target and ligand, obtained from inhibition or displacement – at α1 was found to be 1.85 µM; at I1 imidazoline receptor, 0.017 µM; at I2A, 7.19 µM; at I2B, 0.614 µM.
Consider `COc1nc(C)nc(Cl)c1NC1=NCCN1` [Example 6], for which the Ki was 38.6 µM on α1, 0.056 µM at I1 imidazoline receptor, 100 µM at I2A and 100 µM at I2B.
Turning to `Cc1c(Nc2ncc[nH]2)ccc2c1NCCO2` [Example 17], the Ki on α1 amounted to 14.8 µM; at I1 imidazoline receptor it was 5.3 µM; on I2A it was 27 µM; at I2B, 9.28 µM.
The like results for `COc1ccc(Nc2ncc[nH]2)c(C)c1` [Example 19] were, in that order, 7.61 µM, 0.013 µM, 6.18 µM and 0.179 µM.
As to `Cc1c(Nc2ncc[nH]2)ccc2c1OCCO2` [Example 21], the Ki on α1 turned out to be 2.15 µM; on I1 imidazoline receptor, 0.444 µM; on I2A, 7.71 µM; on I2B, 0.686 µM.
On to `Cc1cc(C(C)(C)C)c(O)c(C)c1CC1=NCCN1` [Example 23], for which the Ki on α1 came out at 0.199 µM; on I1 imidazoline receptor, 7.42 µM; at I2A, 12.9 µM; at I2B, 2.69 µM.
Turning to `Cc1c(Nc2ncc[nH]2)ccc2nccnc12` [Example 24], the inhibitory constant (Ki) came out at 30.6 µM at α1; 0.212 µM on human α2C; 0.227 µM on I1 imidazoline receptor; 6.37 µM at I2A; 0.036 µM at I2B.
On to `Clc1cccc(Cl)c1N=C1NCCN1` [clonidine], for which the “IOP of the untreated eye (systemic effect)” value in data set [1] is listed as “the IOP of the untreated eye is lowered to the same extent as the treated eye”. Moreover, the “binding to α2 and imidazoline receptors (in words)” value in data set [2] was “binds to both α2 and imidazoline receptors”. Also, the “cardiovascular effect (in words)” value in data set [3] (in vivo) is given as “hypotensive cardiovascular effects”. Moreover, the “α2 adrenergic mechanism of action (in words)” value with α2 receptors is given as “centrally acting α2 adrenergic partial agonist”.
In the case of `Cc1cccc([C@H](C)c2cnc[nH]2)c1C` [dexmedetomidine], the “α2A selectivity (in words)” value with α2A is “a2A selective”.
As for `COc1cc2nc(N3CCN(C(=O)c4ccco4)CC3)nc(N)c2cc1OC` [prazosin], in the data set with α1 receptors, the “relative potency at α1 receptors (in words)” value is recorded as “more potent that yohimbine”.
Take `C1COC(NC(C2CC2)C2CC2)=N1` [rilmenidine]: in data set [2], the “selectivity for imidazoline receptors (in words)” value is on record as “more selective for imidazoline receptors than for α2 -adrenoceptors”. Further, in data set [3] (equihypotensive doses), the “side effects compared to clonidine” value is “less bradycardia and reduction in cardiac output, less sedation, and little or no antinociceptive action compared to clonidine”.
With `COC(=O)[C@@H]1[C@H]2C[C@H]3c4[nH]c5ccccc5c4CCN3C[C@@H]2CC[C@@H]1O` [yohimbine], in the data set on α2 receptors (yohimbine vs prazosin), the “relative potency at α2 receptors (in words)” value is recorded as “more potent than prazosin”.
